Experimental data from US5185452A, “Benzheterocyclyl sulphones” (Imperial Chemical Industries PLC, priority 1989, dated 1993).

Target: T1, aldose reductase (Bos taurus, UniProt P16116)
T1 construct: partially purified aldose reductase is isolated in known manner from bovine lenses; from tissue; host or cells: bovine lenses
Experiment: in vitro inhibition of partially purified aldose reductase isolated from bovine lenses (reduction of glucose to sorbitol, spectrophotometric)
Format: biochemical
Settings: in vitro test
From the text: Thus, in a standard procedure partially purified aldose reductase is isolated in known manner from bovine lenses. The percentage inhibition of this enzyme's ability in vitro to catalyse the reduction of aldoses to polyhydric alcohols, and particularly to reduce glucose to sorbitol, caused by a test compound can then be determined using standard spectrophotometric methods.

- IC50: 13 nM
SMILES: Cc1c(C)c(S(=O)(=O)C[N+](=O)[O-])c(C)c2c1OC(C)(C)CC2 [Example 2, 2,2,5,7,8-pentamethyl-6-(nitromethylsulphonyl)-chroman]
